Reference: patent publication US7432291B2, “Ether derivatives” (Hoffman-La Roche Inc., priority 2004, dated 2008)

Legend:
[1] = biological target: T1, HER2 (pY 1248) in Calu3 cells (Homo sapiens, UniProt P04626); assay: Inhibition of HER2 phosphorylation in Calu3 tumor cell line; assay type: cell-based; conditions: Calu-3, compound concentration 1 μM, 16 h incubation, percentage of the DMSO treated control, read-out: Percent inhibition of HER2-phosphorylation
T1 construct: endogenous in cells; host or cells: Calu-3 (HTB-55)
T1 sequence (P04626 23-1255): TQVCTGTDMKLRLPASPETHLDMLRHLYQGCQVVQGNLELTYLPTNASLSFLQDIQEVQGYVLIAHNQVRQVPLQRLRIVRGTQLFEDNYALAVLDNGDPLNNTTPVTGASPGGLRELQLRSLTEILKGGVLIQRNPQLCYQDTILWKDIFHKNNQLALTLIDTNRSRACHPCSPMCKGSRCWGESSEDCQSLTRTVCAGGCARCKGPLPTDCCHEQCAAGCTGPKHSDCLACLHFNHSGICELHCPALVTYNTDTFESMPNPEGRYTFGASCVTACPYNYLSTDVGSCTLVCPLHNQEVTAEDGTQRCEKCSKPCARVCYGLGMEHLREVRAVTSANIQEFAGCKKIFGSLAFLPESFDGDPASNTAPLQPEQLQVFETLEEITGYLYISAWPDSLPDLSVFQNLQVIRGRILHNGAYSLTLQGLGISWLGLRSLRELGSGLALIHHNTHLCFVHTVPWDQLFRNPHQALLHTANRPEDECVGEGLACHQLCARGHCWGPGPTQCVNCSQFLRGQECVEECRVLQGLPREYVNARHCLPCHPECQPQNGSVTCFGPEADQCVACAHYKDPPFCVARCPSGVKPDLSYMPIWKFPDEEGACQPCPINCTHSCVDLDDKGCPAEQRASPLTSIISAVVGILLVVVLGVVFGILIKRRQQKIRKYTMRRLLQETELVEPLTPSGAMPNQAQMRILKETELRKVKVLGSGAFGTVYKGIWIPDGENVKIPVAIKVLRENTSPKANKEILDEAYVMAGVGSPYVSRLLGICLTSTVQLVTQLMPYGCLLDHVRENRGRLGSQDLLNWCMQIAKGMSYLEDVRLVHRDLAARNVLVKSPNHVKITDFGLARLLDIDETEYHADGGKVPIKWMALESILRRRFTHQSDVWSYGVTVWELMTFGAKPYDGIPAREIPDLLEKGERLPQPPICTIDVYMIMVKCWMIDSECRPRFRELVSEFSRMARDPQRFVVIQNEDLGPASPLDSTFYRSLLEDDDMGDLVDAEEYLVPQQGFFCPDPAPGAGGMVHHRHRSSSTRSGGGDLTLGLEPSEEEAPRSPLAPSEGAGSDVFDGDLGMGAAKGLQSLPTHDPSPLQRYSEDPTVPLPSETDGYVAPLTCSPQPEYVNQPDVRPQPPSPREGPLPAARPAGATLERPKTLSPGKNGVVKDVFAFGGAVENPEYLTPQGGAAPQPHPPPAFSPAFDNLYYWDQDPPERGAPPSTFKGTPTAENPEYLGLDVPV
Protocol: Inhibition of HER2 Phosphorylation in Calu3 Tumor Cell Line
2×10^5 Calu3 cells [Calu-3 (HTB-55) cells available from ATTC] per well were plated 12-well plate. After 4 days cells were starved for 16 h in DMEM/0.5% FCS/1% Glutamine. During this time cells were incubated with 1 μM of the compound. Afterwards cells were lysed in lyses buffer containing 1% Triton, 10% Glycerol, 1 mM EGTA, 1.5 mM MgCl2, 150 mM NaCl, 50 mM Hepes pH 7.5, 1 mM PMSF, 10 μg/mL Aprotinin and […] Orthovanadate. Cell lysates were analyzed on a SDS PAGE and after transfer to a nitrocellulose membrane detected with an antibody specifically recognizing the pY 1248 in HER2. Inhibition of HER2 phosphorylation is calculated as percentage of the DMSO treated control. This percentage was calculated according to the following formula: Inhibition in %=100−(Phosphorylated-HER2-Signal of Test Sample*100/Phosphorylated-HER2-Signal DMSO-control).

Row | melting point | inhibition at 1 µM [1] | SMILES
1 | – | 85.8% | FC1(F)Oc2ccc(/C=C/c3nc(COc4ccc(COCCn5ccnn5)cc4)co3)cc2O1 [example 2, 1-[2-(4-{2-[2-(E)-(2,2-Difluoro-benzo[1,3]dioxol-5-yl)-vinyl]-oxazol-4-ylmethoxy}-benzyloxy)-ethyl]-1H-[1,2,3]triazole]
2 | – | 73.4% | FC(F)(F)Sc1ccc(/C=C/c2nc(COc3ccc(COCCn4ccnn4)cc3)co2)cc1 [example 3, 1-[2-(4-{2-[2-(E)-(4-Trifluoromethylsulfanyl-phenyl)-vinyl]-oxazol-4-ylmethoxy}-benzyloxy)-ethyl]-1H-[1,2,3]triazole]
3 | – | 78.6% | FC(F)(F)Oc1ccc(/C=C/c2nc(COc3ccc(COCCn4ccnn4)cc3)co2)cc1 [example 4, 1-[2-(4-{2-[2-(E)-(4-Trifluoromethoxy-phenyl)-vinyl]-oxazol-4-ylmethoxy}-benzyloxy)-ethyl]-1H-[1,2,3]triazole]
4 | – | 54% | FC(F)(F)c1ccc(/C=C/c2nc(COc3ccc(COCCn4ccnn4)cc3)co2)cc1 [reference compound 2, 1-[2-(4-{2-[(E)-2-(4-Trifluoromethyl-phenyl)-vinyl]-oxazol-4-ylmethoxy}-benzyloxy)-ethyl]-1H-[1,2,3]triazole, reference compound]

More lines, now with the values behind:

Row | SMILES | melting point | inhibition at 1 µM [1]
5 | Cc1cc(OCc2coc(C=Cc3ccc(OC(F)F)cc3)n2)ccc1COCCn1ccnn1 [Example 7, 1-[2-(4-{2-[2-(4-Difluoromethoxy-phenyl)-vinyl]-oxazol-4-ylmethoxy}-2-methyl-benzyloxy)-ethyl]-1H-[1,2,3]triazole] | 119 to 120 °C | –
6 | Cc1cc(OCc2coc(C=Cc3ccc(SC(F)(F)F)cc3)n2)ccc1COCCn1ccnn1 [Example 8, 1-[2-(2-Methyl-4-{2-[2-(4-trifluoromethylsulfanyl-phenyl)-vinyl]-oxazol-4-ylmethoxy}-benzyloxy)-ethyl]-1H-[1,2,3]triazole] | 102 °C | –
7 | Cc1cc(OCc2coc(C=Cc3ccc(OC(F)(F)F)cc3)n2)ccc1COCCn1ccnn1 [Example 9, 1-[2-(2-Methyl-4-{2-[2-(4-trifluoromethoxy-phenyl)-vinyl]-oxazol-4-ylmethoxy}-benzyloxy)-ethyl]-1H-[1,2,3]triazole] | 84 to 85 °C | –
8 | FC(F)Oc1ccc(/C=C/c2nc(COc3ccc(COCCn4ccnn4)cc3)co2)cc1 [example 1, 1-[2-(4-{2-[2-(E)-(4-Difluoromethoxy-phenyl)-vinyl]-oxazol-4-ylmethoxy}-benzyloxy)-ethyl]-1H-[1,2,3]triazole] | – | 69.6%
